# Results reported in PubChem BioAssay (NCI).
#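 48-hour exposure; five concentrations; linearly interpolated endpoints. TGI is the concentration that stops growth completely.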
# Columns and labels:
# Assay in all cases: NCI-60 cell line screen, 48 h
# SF-295 CNS = test system: SF-295 CNS
# NCI-H460 lung = test system: NCI-H460 lung
# HCC-2998 colon = test system: HCC-2998 colon
# UACC-257 melanoma = test system: UACC-257 melanoma
# T-47D breast = test system: T-47D breast
# EKVX NSCLC = test system: EKVX NSCLC
# M14 melanoma = test system: M14 melanoma
# BT-549 breast = test system: BT-549 breast
# TK-10 renal = test system: TK-10 renal
# LOX IMVI melanoma = test system: LOX IMVI melanoma
# SF-268 CNS = test system: SF-268 CNS
# KM12 colon = test system: KM12 colon
# ACHN renal = test system: ACHN renal
Structure (SMILES),TGI (SF-295 CNS),TGI (NCI-H460 lung),TGI (HCC-2998 colon),TGI (UACC-257 melanoma),TGI (T-47D breast),TGI (EKVX NSCLC),TGI (M14 melanoma),TGI (BT-549 breast),TGI (TK-10 renal),TGI (LOX IMVI melanoma),TGI (SF-268 CNS),TGI (KM12 colon),TGI (ACHN renal)
CC(C)(C)Cc1cc(O)ccc1O,> 100 µM,> 100 µM,> 100 µM,> 100 µM,> 100 µM,> 100 µM,> 100 µM,> 100 µM,> 100 µM,> 100 µM,> 100 µM,> 100 µM,> 100 µM
Cc1ccc(S(=O)(=O)OI(O)CC(F)(F)F)cc1,> 100 µM,> 100 µM,> 100 µM,> 100 µM,> 100 µM,> 100 µM,> 100 µM,> 100 µM,> 100 µM,> 100 µM,> 100 µM,> 100 µM,> 100 µM
CC(=O)c1sc2n(C)c(=O)c3ccccc3[n+]2c1C,> 100 µM,> 100 µM,> 100 µM,> 100 µM,> 100 µM,> 100 µM,> 100 µM,> 100 µM,> 100 µM,> 100 µM,> 100 µM,> 100 µM,> 100 µM
Nc1ncnc2c1ncn2[C@@H]1C[C@H](NO)[C@@H](O)[C@H]1O,> 100 µM,> 100 µM,> 100 µM,> 100 µM,> 100 µM,> 100 µM,> 100 µM,> 100 µM,> 100 µM,> 100 µM,> 100 µM,> 100 µM,> 100 µM
O=C(/C=C/c1ccccc1Br)c1ccccc1,23.4 µM,16.3 µM,7.68 µM,24.1 µM,15.5 µM,26.4 µM,15.1 µM,26.4 µM,9.83 µM,2.64 µM,10.5 µM,6.53 µM,3.73 µM
CC(CC(C)[C@H]1CCC2[C@H]3C(CC(=O)[C@@]21C)[C@@]1(C)CCC(O)C[C@H]1C[C@@H]3O)C(=O)O (stereo partly drawn),–,> 100 µM,> 100 µM,> 100 µM,> 100 µM,> 100 µM,> 100 µM,> 100 µM,> 100 µM,> 100 µM,> 100 µM,> 100 µM,> 100 µM
COc1cc(/C=C2\C(=O)N(c3ccc(NC(C)=O)cc3)C(c3ccccc3)S2(=O)=O)cc(OC)c1OC (stereo not drawn),> 100 µM,> 100 µM,> 100 µM,> 100 µM,> 100 µM,> 100 µM,> 100 µM,> 100 µM,> 100 µM,> 100 µM,–,> 100 µM,> 100 µM
COC(=O)/C=C/c1ccc2c(c1)[C@H](C(=O)OC)[C@@H](c1ccc(O)cc1)O2,> 100 µM,> 100 µM,59.4 µM,> 100 µM,> 100 µM,> 100 µM,42.7 µM,46.4 µM,> 100 µM,89.4 µM,83.8 µM,88.1 µM,> 100 µM
COc1ccc2cc(/C=N\NC(=O)Nc3ccc([N+](=O)[O-])cc3)ccc2c1,20.7 µM,18.3 µM,20.1 µM,20.7 µM,19.5 µM,25 µM,> 71.4 µM,18.6 µM,14.4 µM,17.6 µM,> 31.6 µM,24.5 µM,19.8 µM
Cc1ccc(C2=Nn3c(nc4sc5c(c4c3=O)CCCC5)SC2)cc1,> 100 µM,> 100 µM,> 100 µM,> 100 µM,> 100 µM,> 100 µM,–,> 100 µM,> 100 µM,> 100 µM,> 100 µM,> 100 µM,> 100 µM
C=C(C)CCN(C(=O)OC(C)(C)C)c1cc(C(C)C)co1,> 100 µM,–,> 100 µM,> 100 µM,> 100 µM,> 100 µM,> 100 µM,> 100 µM,> 100 µM,96.7 µM,55.7 µM,> 100 µM,> 100 µM
COC1=CC(=O)c2c(n[nH]c2CCNC(=O)OCc2ccccc2)C1=O,34.9 µM,31.3 µM,39.6 µM,28.3 µM,18.3 µM,32 µM,26.7 µM,32.5 µM,70.6 µM,23.7 µM,–,22.9 µM,27.2 µM
COC(=O)C1=C(C(=O)OC)C(OO)(c2ccccc2)OC1=O (stereo not drawn),> 100 µM,> 100 µM,> 100 µM,> 100 µM,> 100 µM,> 100 µM,> 100 µM,> 100 µM,> 100 µM,96 µM,–,> 100 µM,> 100 µM
